Laboratory results from paper PMC11873900, “Insights into the Activation Mechanism of HCA1, HCA2, and HCA3” (Journal of Medicinal Chemistry, 2025).
Like-named read-outs stand apart in the source and are kept apart here. Each block holds one compound with its values, some of them ahead of it.

Tests used:
HCA1 [1] = biological target: T1, HCA1 (Homo sapiens, UniProt Q9BXC0); experiment: cAMP inhibition (CRE-luc reporter) assay, HCA1 wild type; format: cell-based; details: HEK293 cells, mean ± SEM (Table S2a,b)
T1 construct: expressed in transfected cells; host or cells: HEK293
Procedure: (§1) Human embryonic kidney 293 (HEK293) cells were maintained in Dulbecco’s modified Eagle’s medium (DMEM) containing 10% fetal bovine serum (FBS) and antibiotics (100 U/mL penicillin and 100 μg/mL streptomycin) at 37 °C, 5% CO2. Cells (1 × 10^6 per well) were seeded on 6-well plates for 15 h and transiently transfected with a transfection cocktail containing 2 μg of plasmid DNA (1 μg of the target plasmid and 1 μg of pCRE-luc) and 6 μL of X-tremeGENE HP DNA transfection reagents dissolved in 200 μL of phenol red-free OPTI MEM. After 24 h incubation, the medium containing the transfection cocktail was replaced with a serum-supplemented normal culture medium, and cells were plated at a density of approximately 40000 cells/well in white opaque 96-well microplates for an additional 24 h. After 24 h, fresh medium with varied concentrations of ligands was added to the wells, and cells were incubated for 30 min at 37 °C, 5% CO2. Then, forsklin with a final concentration of 5 μM was added to each well for 6 h. Then, all of the medium was removed and 40 μL of Bright-Glo Luciferase Assay System reagent (Promega, U.K.) was added to each well. Luminance was measured in a luminometer (TECAN Spark, CH) after 10 min incubation.

HCA1 [2] = details: cited from earlier work
HCA1 R99A = biological target: T2, HCA1 R99A (Homo sapiens, UniProt Q9BXC0, R99A); experiment: cAMP reporter assay, HCA1 mutant R99A; format: cell-based; details: HCA1 R99A (Figure 2f)
T2 construct: expressed in transfected cells; host or cells: HEK293
Procedure: as §1

HCA1 E166^45.51A = biological target: T3, HCA1 E166^45.51A (Homo sapiens, UniProt Q9BXC0, E166A); experiment: cAMP reporter assay, HCA1 mutant E166A; format: cell-based; details: HCA1 E166A (Figure 2f)
T3 construct: expressed in transfected cells; host or cells: HEK293
Procedure: as §1

HCA1 E166^45.51I = biological target: T4, HCA1 E166^45.51I (Homo sapiens, UniProt Q9BXC0, E166I); experiment: cAMP reporter assay, HCA1 mutant E166I; format: cell-based; details: HCA1 E166I (Figure 2f)
T4 construct: expressed in transfected cells; host or cells: HEK293
Procedure: as §1

HCA1 H261^7.36F = biological target: T5, HCA1 H261^7.36F (Homo sapiens, UniProt Q9BXC0, H261F); experiment: cAMP reporter assay, HCA1 mutant H261F; format: cell-based; details: HCA1 H261F (Figure 2f)
T5 construct: expressed in transfected cells; host or cells: HEK293
Procedure: as §1

HCA1 R240^6.55A = biological target: T6, HCA1 R240^6.55A (Homo sapiens, UniProt Q9BXC0, R240A); experiment: cAMP reporter assay, HCA1 mutant R240A; format: cell-based; details: HCA1 R240A versus wild type (Figure 2f)
T6 construct: expressed in transfected cells; host or cells: HEK293
Procedure: as §1

[3] = biological target: T7, HCA3(1–129)/HCA2(130-) S178^45.51I (Homo sapiens, UniProt Q8TDS4, L107F/L83V/M103V/N86Y/S178I/V27A/W91S); experiment: IP1 accumulation assay, chimera HCA3(1–129)/HCA2(130-) with S178I; format: cell-based; details: HCA3(1–129)/HCA2(130-) with mutation S178I (Figure 3d)
T7 construct: swap the amino acid segments 1–129 between HCA2 and HCA3; creating chimeras HCA2(1–129)/HCA3(130-) and HCA3(1–129)/HCA2(130-); expressed in transfected cells; host or cells: HEK293

HCA2(1–129)/HCA3(130-) = biological target: T8, HCA2(1–129)/HCA3(130-) (Homo sapiens, UniProt Q8TDS4, G173T/I156V/L176V/M167L/M317I/M346I/P168L/Q187R/R142W/R253H/S178I); experiment: IP1 accumulation assay, chimera HCA2(1–129)/HCA3(130-); format: cell-based; details: IP1 accumulation (Figure 3d)
T8 construct: swap the amino acid segments 1–129 between HCA2 and HCA3; creating chimeras HCA2(1–129)/HCA3(130-) and HCA3(1–129)/HCA2(130-); expressed in transfected cells; host or cells: HEK293
Procedure: The HCA1/HCA2/HCA3 plasmid was transfected into the HEK293 cells (Invitrogen) and cultured for 2 days. The HEK293 cells expressing HCA1/HCA2/HCA3 were washed by PBS and resuspended by the stimulation buffer from a Cisbio Bioassays’ IP-One Gq kit. […] After incubation at 37 °C for 90 min, 3μl Tb Cryptate Antibody and 3μl IP1 d2 Reagent were added to 384-well plates per well. […] The data was analyzed by GraphPad Prism 8.4.0 (GraphPad Software).

[4] = biological target: T9, HCA2(1–129)/HCA3(130-) N86^2.63Y W91^ECL1S (Homo sapiens, UniProt Q8TDS4, G173T/I156V/L176V/M167L/M317I/M346I/N86Y/P168L/Q187R/R142W/R253H/S178I/W91S); experiment: IP1 accumulation assay, chimera HCA2(1–129)/HCA3(130-) with N86Y and W91S; format: cell-based; details: HCA2(1–129)/HCA3(130-) with N86Y and W91S (Figure 3d)
T9 construct: swap the amino acid segments 1–129 between HCA2 and HCA3; creating chimeras HCA2(1–129)/HCA3(130-) and HCA3(1–129)/HCA2(130-); expressed in transfected cells; host or cells: HEK293

HCA3(1–129)/HCA2(130-) = biological target: T10, HCA3(1–129)/HCA2(130-) (Homo sapiens, UniProt P49019, H253R/I178S/I317M/I346M/L167M/L168P/R187Q/T173G/V156I/V176L/W142R); experiment: IP1 accumulation assay, chimera HCA3(1–129)/HCA2(130-); format: cell-based; details: IP1 accumulation (Figure 3d)
T10 construct: swap the amino acid segments 1–129 between HCA2 and HCA3; creating chimeras HCA2(1–129)/HCA3(130-) and HCA3(1–129)/HCA2(130-); expressed in transfected cells; host or cells: HEK293
T10 sequence (P49019 with tags, fused parts or gaps with the stated changes): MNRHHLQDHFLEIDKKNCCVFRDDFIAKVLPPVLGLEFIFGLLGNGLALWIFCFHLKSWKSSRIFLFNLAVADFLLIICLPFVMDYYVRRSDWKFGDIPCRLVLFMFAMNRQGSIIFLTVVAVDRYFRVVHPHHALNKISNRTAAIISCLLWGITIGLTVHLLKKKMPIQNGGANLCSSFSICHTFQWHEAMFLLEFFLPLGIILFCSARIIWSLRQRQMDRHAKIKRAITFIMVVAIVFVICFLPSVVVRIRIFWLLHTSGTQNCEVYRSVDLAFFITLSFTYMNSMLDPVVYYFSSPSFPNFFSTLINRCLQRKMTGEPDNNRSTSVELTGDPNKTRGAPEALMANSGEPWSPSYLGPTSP

T2 sequence (Q9BXC0 whole entry R99A): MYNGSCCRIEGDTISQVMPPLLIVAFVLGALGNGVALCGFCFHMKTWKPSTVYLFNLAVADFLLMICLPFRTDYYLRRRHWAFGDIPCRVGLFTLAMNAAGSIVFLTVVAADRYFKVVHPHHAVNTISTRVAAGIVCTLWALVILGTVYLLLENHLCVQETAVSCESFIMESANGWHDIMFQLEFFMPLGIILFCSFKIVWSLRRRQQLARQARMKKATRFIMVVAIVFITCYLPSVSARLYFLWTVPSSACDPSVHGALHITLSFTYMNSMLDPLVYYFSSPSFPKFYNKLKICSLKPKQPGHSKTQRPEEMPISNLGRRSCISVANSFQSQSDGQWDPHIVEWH
T1 sequence (Q9BXC0 whole entry): as the sequence (Q9BXC0 whole entry R99A) above, with A99R counted along it
T9 sequence (Q8TDS4 with tags, fused parts or gaps with the stated changes): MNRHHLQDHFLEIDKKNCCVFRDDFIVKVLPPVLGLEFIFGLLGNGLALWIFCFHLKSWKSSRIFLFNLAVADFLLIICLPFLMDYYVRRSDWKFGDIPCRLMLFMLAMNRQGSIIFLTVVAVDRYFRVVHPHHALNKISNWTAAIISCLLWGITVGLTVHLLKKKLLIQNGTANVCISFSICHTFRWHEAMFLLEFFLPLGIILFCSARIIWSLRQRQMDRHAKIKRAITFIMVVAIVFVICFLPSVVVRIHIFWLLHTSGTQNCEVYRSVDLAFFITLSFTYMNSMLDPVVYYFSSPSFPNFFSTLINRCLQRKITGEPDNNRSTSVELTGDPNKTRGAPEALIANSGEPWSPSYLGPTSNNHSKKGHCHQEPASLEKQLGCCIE
T6 sequence (Q9BXC0 whole entry R240A): as the sequence (Q9BXC0 whole entry R99A) above, with A99R, R240A counted along it
T4 sequence (Q9BXC0 whole entry E166I): as the sequence (Q9BXC0 whole entry R99A) above, with A99R, E166I counted along it
T3 sequence (Q9BXC0 whole entry E166A): as the sequence (Q9BXC0 whole entry R99A) above, with A99R, E166A counted along it
T8 sequence (Q8TDS4 with tags, fused parts or gaps with the stated changes): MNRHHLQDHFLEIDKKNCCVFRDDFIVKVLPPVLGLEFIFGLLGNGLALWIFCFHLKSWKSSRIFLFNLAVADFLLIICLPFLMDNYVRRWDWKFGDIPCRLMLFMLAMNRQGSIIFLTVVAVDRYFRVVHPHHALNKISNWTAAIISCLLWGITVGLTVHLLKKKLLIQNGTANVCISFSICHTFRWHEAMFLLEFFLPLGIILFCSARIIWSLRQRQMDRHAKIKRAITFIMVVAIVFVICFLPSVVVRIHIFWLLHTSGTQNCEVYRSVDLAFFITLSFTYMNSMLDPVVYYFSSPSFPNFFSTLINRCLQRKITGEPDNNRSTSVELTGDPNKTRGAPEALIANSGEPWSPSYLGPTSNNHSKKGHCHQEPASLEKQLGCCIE
T5 sequence (Q9BXC0 whole entry H261F): as the sequence (Q9BXC0 whole entry R99A) above, with A99R, H261F counted along it
T7 sequence (Q8TDS4 whole entry V27A/L83V/N86Y/W91S/M103V/L107F/S178I): as the sequence (P49019 with tags, fused parts or gaps with the stated changes) above, with S178I counted along it

- pEC50 (HCA1 [1]): 3.2 ± 0.3
- potency at mutant (HCA1 R99A): complete loss of potency
Compound: CC(O)C(=O)O (stereo not drawn) [lactate]
- EC50 (HCA1 [2]; HCA1, endogenous agonist): 1000 to 5000 µM

- activation of chimera [3]: highest potency
- activation of chimera (HCA2(1–129)/HCA3(130-)): failed to activate
- activation of chimera [4]: did not facilitate activation
- activation of chimera (HCA3(1–129)/HCA2(130-)): capable of activating
Compound: CCCCCC(O)CC(=O)O (stereo not drawn) [3-HO, 3-hydroxy-octanoic acid]

More lines, now with the values behind:

Compound: CCOc1cc(Cl)c(C(=O)NC(=O)Nc2nc3ccc(CN4CCN(C)CC4)cc3s2)cc1N1CCOCC1 [AZ2, 2-chloro-4-ethoxy-N-[[6-[(4-methylpiperazin-1-yl)methyl]-1,3-benzothiazol-2-yl]carbamoyl]-5-morpholino-benzamide]
- EC50 (HCA1 [2]; HCA1): 0.07 to 0.18 µM

Compound: 3-hydroxybutyric acid [3-HBA]
- EC50 (HCA1 [2]; HCA1): ~184 µM

Compound: O=C(O)c1cc(O)cc(O)c1 [3,5-DHBA, 3,5-dihydroxybenzoic acid]
- receptor activation (HCA1 E166^45.51A): inactivity
- activation efficacy compared with the wild type (HCA1 E166^45.51I): halving of the activation efficacy
- efficacy compared with H261A (HCA1 H261^7.36F): marked decrease of efficacy
- reduction of activation efficacy (HCA1 R240^6.55A): around 50%
- pEC50 (HCA1 [1]): 3.7 ± 0.1
- potency at mutant (HCA1 R99A): complete loss of potency
